This is an account of results in US9839642B2, “Beta-tetrazolyl-propionic acids as metallo-beta-lactamase inhibitors” (priority 2014, dated 2017).

The IC50 is the concentration needed to halve the response being measured.

In assay [1] the target is IMP-1 (Serratia marcescens, UniProt P52699). Put plainly: Enzyme activity: determination of IC50, fluorescence assay with CCF2-FA substrate. Type of assay: biochemical. The following applies: IMP-1 enzyme 2 pM, CCF2-FA 1.25 μM, 2 hours at 25° C.; read-out: IMP1 IC50. In outline:
(§1)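 In pH 7 phosphate buffer (100 mM) with 10 μM ZnSO4 and 0.005% Tween-20, CCF2-FA substrate (1.25 μM final) was hydrolysed for 2 h at 25 °C by NDM-1, IMP-1 or VIM-1 at 1, 2 or 30 pM in the presence of inhibitor at 20–0.00063 μM. Emission 460 nm/excitation 405 nm; 4-parameter curve fit gave IC50.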

In assay [2] the target is NDM-1 (Klebsiella pneumoniae, UniProt C7C422). The assay is described as above. Format: biochemical. Particulars: NDM-1 enzyme 1 pM, CCF2-FA 1.25 μM, 2 hours at 25° C.; read-out: NDM1 IC50. In outline:
as §1

Assay [3] addresses VIM-1 (Pseudomonas aeruginosa, UniProt A0A0F7KYQ8). The description is as above. Type of assay: biochemical. The following applies: VIM-1 enzyme 30 pM, CCF2-FA 1.25 μM, 2 hours at 25° C.; read-out: VIM1 IC50. In outline: as §1
The test system of assay [4] is Escherichia coli expressing NDM-1 (CLB30016). Put plainly: Antibiotic potentiation activity: synergistic concentration (MITC95) with imipenem, growth by OD600. Type of assay: cell-based. The following applies: E. coli CLB30016 (NDM-1), 95% inhibition of growth. The procedure, abridged: (§2)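 MITC95 = lowest inhibitor concentration giving 95% growth inhibition, read by absorbance after 22–24 h at 35° C. Compound range 200 μM to 0.195 μM, imipenem fixed at 1 or 4 μg/ml, bacteria in 1.1×CAMHB from saline suspension diluted 1:100.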

The subject of assay [5] is Klebsiella pneumoniae expressing VIM-1 (IHMA599644). Described as above. Particulars: K. pneumoniae IHMA599644 (VIM-1), 95% inhibition of growth. Type of assay: cell-based. The procedure, abridged: as §2
For assay [6], the system named is Serratia marcescens expressing IMP-1 (CL5741). The description is as above. Type of assay: cell-based. The following applies: S. marcescens CL5741 (IMP-1), 95% inhibition of growth. The procedure, abridged:
as §2

Chain of NDM-1 (C7C422 29-270, looked up, species assumed): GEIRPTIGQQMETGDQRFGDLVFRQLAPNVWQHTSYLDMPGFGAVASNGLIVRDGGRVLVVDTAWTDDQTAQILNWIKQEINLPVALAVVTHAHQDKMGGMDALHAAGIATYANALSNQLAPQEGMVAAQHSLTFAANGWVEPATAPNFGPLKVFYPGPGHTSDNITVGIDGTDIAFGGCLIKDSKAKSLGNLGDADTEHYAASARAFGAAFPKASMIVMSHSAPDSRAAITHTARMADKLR
Chain of IMP-1 (P52699 19-246, looked up, species assumed): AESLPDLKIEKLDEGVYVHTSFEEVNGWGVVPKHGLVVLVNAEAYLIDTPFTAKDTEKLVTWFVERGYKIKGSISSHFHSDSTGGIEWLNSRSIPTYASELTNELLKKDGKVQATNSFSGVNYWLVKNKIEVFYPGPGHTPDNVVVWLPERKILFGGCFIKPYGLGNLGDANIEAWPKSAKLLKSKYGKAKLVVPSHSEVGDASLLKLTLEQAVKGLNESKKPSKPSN

On to `CC(C)C[C@H](C(=O)O)[C@H](Cc1ccc(N2CCCC(C(C)(C)N)C2)nc1)c1nnn[nH]1` (stereo partly drawn) [Example 322, (2S)-2-[(1S)-2-{6-[3-(1-amino-1-methylethyl)piperidin-1-yl]pyridin-3-yl}-1-(1H-tetrazol-5-yl)ethyl]-4-methylpentanoic acid], for which the figures for the half-maximal inhibitory concentration (IC50) in assay [1], in assay [2] and in assay [3] were 550 nM, 340 nM and 11 nM, respectively. The “NDM1 EC30016 MITC95” value in assay [4] was 18.8 µM. Further, the “VIM1 KP599644 MITC95” value in assay [5] came out at 50 µM. In assay [6], the “IMP1 SM5741 MITC95” value is 25 µM.
Take `CC(C)C[C@H](C(=O)O)[C@H](Cc1ccc(NCC2CNCCC2O)nc1)c1nnn[nH]1` (stereo partly drawn) [Example 323, (2S)-2-[(1S)-2-(6-{[(4-hydroxypiperidin-3-yl)methyl]amino}pyridin-3-yl)-1-(1H-tetrazol-5-yl)ethyl]-4-methylpentanoic acid]: the figures for the IC50 in assay [1], in assay [2] and in assay [3] were 930 nM, 120 nM and 17 nM, respectively. Also, the “NDM1 EC30016 MITC95” value in assay [4] came out at 1.6 µM. Moreover, in assay [5], the “VIM1 KP599644 MITC95” value amounted to 18.8 µM. The “IMP1 SM5741 MITC95” value in assay [6] amounted to 6.2 µM.
Consider `CC(C)C[C@H](C(=O)O)[C@H](Cc1ccc(N2CC(C)(CN)C2)nc1)c1nnn[nH]1` [Example 325, (2S)-2-[(1S)-2-{6-[3-(aminomethyl)-3-methylazetidin-1-yl]pyridin-3-yl}-1-(1H-tetrazol-5-yl)ethyl]-4-methylpentanoic acid], for which the half-maximal inhibitory concentration (IC50) in assay [1] was 4400 nM; in assay [2], 1100 nM; in assay [3], 36 nM. In addition, the “NDM1 EC30016 MITC95” value in assay [4] was 12.5 µM. For the same molecule, the “VIM1 KP599644 MITC95” value in assay [5] turned out to be 75 µM. For the same molecule, in assay [6], the “IMP1 SM5741 MITC95” value was determined as 75 µM.
Consider `CC(C)C[C@H](C(=O)O)[C@H](Cc1ccc(N2CC(CCN)C2)nc1)c1nnn[nH]1` [Example 326, (2S)-2-[(1S)-2-{6-[3-(2-aminoethyl)azetidin-1-yl]pyridin-3-yl}-1-(1H-tetrazol-5-yl)ethyl]-4-methylpentanoic acid], for which the IC50 is above 20000 nM in assay [1], 6400 nM in assay [2] and 29 nM in assay [3]. Moreover, in assay [4], the “NDM1 EC30016 MITC95” value came to 50 µM. The “VIM1 KP599644 MITC95” value in assay [5] came out at 6.2 µM. Moreover, the “IMP1 SM5741 MITC95” value in assay [6] was above 200 µM.
On to `CC(C)C[C@H](C(=O)O)[C@H](Cc1ccc(N2CC(N)C2)nc1)c1nnn[nH]1` [Example 327, (2S)-2-[(1S)-2-[6-(3-aminoazetidin-1-yl)pyridin-3-yl]-1-(1H-tetrazol-5-yl)ethyl]-4-methylpentanoic acid], for which the IC50 in assay [1] was found to be 2600 nM; in assay [2] it was 470 nM; in assay [3] it was 17 nM. For the same molecule, the “NDM1 EC30016 MITC95” value in assay [4] is 9.4 µM. The “VIM1 KP599644 MITC95” value in assay [5] was found to be 38 µM. The “IMP1 SM5741 MITC95” value in assay [6] was found to be 38 µM.
`CC(C)C[C@H](C(=O)O)[C@H](Cc1ccc(N2CC3(CNC(=O)C3)C2)nc1)c1nnn[nH]1` [Example 328, (2S)-4-methyl-2-[(1S)-2-[6-(7-oxo-2,6-diazaspiro[3.4]oct-2-yl)pyridin-3-yl]-1-(1H-tetrazol-5-yl)ethyl]pentanoic acid]: the figures for the IC50 in assay [1], in assay [2] and in assay [3] were 1100 nM, 260 nM and 12 nM, respectively. Moreover, the “NDM1 EC30016 MITC95” value in assay [4] is 9.4 µM. Further, the “VIM1 KP599644 MITC95” value in assay [5] is 50 µM. For the same molecule, in assay [6], the “IMP1 SM5741 MITC95” value amounted to 50 µM.
Take `CC(C)C[C@H](C(=O)O)[C@H](Cc1ccc(N2CC(N3CCOCC3)C2)nc1)c1nnn[nH]1` [Example 329, (2S)-4-methyl-2-[(1S)-2-[6-(3-morpholin-4-ylazetidin-1-yl)pyridin-3-yl]-1-(1H-tetrazol-5-yl)ethyl]pentanoic acid]: the values for the IC50 in assay [1], in assay [2] and in assay [3] were 450 nM, 170 nM and 49 nM, respectively. In assay [4], the “NDM1 EC30016 MITC95” value is 12.5 µM. Besides, the “VIM1 KP599644 MITC95” value in assay [5] is above 200 µM. In addition, the “IMP1 SM5741 MITC95” value in assay [6] stood at 25 µM.
For the molecule `CC(C)C[C@H](C(=O)O)[C@H](Cc1ccc(N2CC(CO)(CO)C2)nc1)c1nnn[nH]1` [Example 330, (2S)-2-[(1S)-2-{6-[3,3-bis(hydroxymethyl)azetidin-1-yl]pyridin-3-yl}-1-(1H-tetrazol-5-yl)ethyl]-4-methylpentanoic acid], the IC50 turned out to be 400 nM in assay [1], 100 nM in assay [2] and 22 nM in assay [3]. Also, the “NDM1 EC30016 MITC95” value in assay [4] was found to be 16 µM. Also, in assay [5], the “VIM1 KP599644 MITC95” value came to 100 µM. Further, the “IMP1 SM5741 MITC95” value in assay [6] came to 25 µM.
On to `CC(C)C[C@H](C(=O)O)[C@H](Cc1ccc(N2CC(C(C)(C)O)C2)nc1)c1nnn[nH]1` [Example 331, (2S)-2-[(1S)-2-{6-[3-(1-hydroxy-1-methylethyl)azetidin-1-yl]pyridin-3-yl}-1-(1H-tetrazol-5-yl)ethyl]-4-methylpentanoic acid], for which the results for the IC50 in assay [1], in assay [2] and in assay [3] were 340 nM, 130 nM and 49 nM, respectively. Moreover, the “NDM1 EC30016 MITC95” value in assay [4] was 9.4 µM. For the same molecule, the “VIM1 KP599644 MITC95” value in assay [5] worked out at 100 µM. The “IMP1 SM5741 MITC95” value in assay [6] was 18.8 µM.
As to `CC(C)C[C@H](C(=O)O)[C@H](Cc1ccc(N2CC(N3CCN(C)CC3)C2)nc1)c1nnn[nH]1` [Example 332, (2S)-4-methyl-2-[(1S)-2-{6-[3-(4-methylpiperazin-1-yl)azetidin-1-yl]pyridin-3-yl}-1-(1H-tetrazol-5-yl)ethyl]pentanoic acid], the results for the half-inhibitory concentration (IC50) in assay [1], in assay [2] and in assay [3] were 540 nM, 160 nM and 24 nM, respectively. Besides, in assay [4], the “NDM1 EC30016 MITC95” value was 4.7 µM. For the same molecule, the “VIM1 KP599644 MITC95” value in assay [5] was determined as 50 µM. Also, the “IMP1 SM5741 MITC95” value in assay [6] was 12.5 µM.
Turning to `CC(C)C[C@H](C(=O)O)[C@H](Cc1ccc(N2CC(CCO)C2)nc1)c1nnn[nH]1` [Example 333, (2S)-2-[(1S)-2-{6-[3-(2-hydroxyethyl)azetidin-1-yl]pyridin-3-yl}-1-(1H-tetrazol-5-yl)ethyl]-4-methylpentanoic acid], the IC50 in assay [1] worked out at 170 nM; in assay [2], 58 nM; in assay [3] it was 8.2 nM. Besides, in assay [4], the “NDM1 EC30016 MITC95” value came to 1.6 µM. Besides, the “VIM1 KP599644 MITC95” value in assay [5] came to 38 µM. The “IMP1 SM5741 MITC95” value in assay [6] was determined as 12.5 µM.
Consider `CC(C)C[C@H](C(=O)O)[C@H](Cc1ccc(N2CC(S(C)(=O)=O)C2)nc1)c1nnn[nH]1` [Example 335, (2S)-4-methyl-2-[(1S)-2-{6-[3-(methylsulfonyl)azetidin-1-yl]pyridin-3-yl}-1-(1H-tetrazol-5-yl)ethyl]pentanoic acid], for which the IC50 in assay [1] was found to be 56 nM; in assay [2] it was 59 nM; in assay [3], 4.9 nM. The “NDM1 EC30016 MITC95” value in assay [4] amounted to 6.2 µM. In addition, the “VIM1 KP599644 MITC95” value in assay [5] came out at 75 µM. In addition, in assay [6], the “IMP1 SM5741 MITC95” value worked out at 3.1 µM.
With `CC(C)C[C@H](C(=O)O)[C@H](Cc1ccc(N2CC3(CCNC3)C2)nc1)c1nnn[nH]1` [Example 336, (2S)-2-[(1S)-2-[6-(2,6-diazaspiro[3.4]oct-2-yl)pyridin-3-yl]-1-(1H-tetrazol-5-yl)ethyl]-4-methylpentanoic acid], the half-inhibitory concentration (IC50) in assay [1] was 1200 nM; in assay [2] it was 180 nM; in assay [3], 20 nM. Also, in assay [4], the “NDM1 EC30016 MITC95” value was found to be 3.1 µM. Also, in assay [5], the “VIM1 KP599644 MITC95” value stood at 25 µM. Moreover, the “IMP1 SM5741 MITC95” value in assay [6] is 25 µM.
As for `CC(C)C[C@H](C(=O)O)[C@H](Cc1ccc(N2CC3(CN(C)C(=O)O3)C2)nc1)c1nnn[nH]1` [Example 337, (2S)-4-methyl-2-[(1S)-2-[6-(7-methyl-6-oxo-5-oxa-2,7-diazaspiro[3.4]oct-2-yl)pyridin-3-yl]-1-(1H-tetrazol-5-yl)ethyl]pentanoic acid], the IC50 in assay [1] was determined as 300 nM; in assay [2], 62 nM; in assay [3], 10 nM. For the same molecule, the “NDM1 EC30016 MITC95” value in assay [4] came to 9.4 µM. For the same molecule, the “VIM1 KP599644 MITC95” value in assay [5] turned out to be 75 µM. Also, the “IMP1 SM5741 MITC95” value in assay [6] was determined as 18.8 µM.
As for `CC(C)C[C@H](C(=O)O)[C@H](Cc1ccc(N2CC(O)(C(F)(F)F)C2)nc1)c1nnn[nH]1` [Example 338, (2S)-2-[(1S)-2-{6-[3-hydroxy-3-(trifluoromethyl)azetidin-1-yl]pyridin-3-yl}-1-(1H-tetrazol-5-yl)ethyl]-4-methylpentanoic acid], the IC50 was 200 nM in assay [1], 110 nM in assay [2] and 38 nM in assay [3]. Further, the “NDM1 EC30016 MITC95” value in assay [4] stood at 31 µM. The “VIM1 KP599644 MITC95” value in assay [5] came to 150 µM. The “IMP1 SM5741 MITC95” value in assay [6] was 9.4 µM.
`CCC[C@H](C(=O)O)[C@H](Cc1cccc(-c2cccnc2)c1)c1nn[nH]n1` [Example 339, (2S)-2-[(1S)-2-(3-pyridin-3-ylphenyl)-1-(2H-tetrazol-5-yl)ethyl]pentanoic acid]: the values for the IC50 in assay [1], in assay [2] and in assay [3] were 160 nM, 3.6 nM and 1.4 nM, respectively. The “NDM1 EC30016 MITC95” value in assay [4] turned out to be 18.8 µM. In addition, the “VIM1 KP599644 MITC95” value in assay [5] amounted to 38 µM. Moreover, in assay [6], the “IMP1 SM5741 MITC95” value amounted to 6.2 µM.
